In US9464326B2, “Total and phosphorylated IL-1 receptor-associated kinase-1 and IL-1 receptor-associated kinase-4 as a biomarker for cancer progression and chemotherapy resistance” (University of Maryland, Baltimore, priority 2012, dated 2016):

Legend:
[1] = system: patient T-ALL cells; assay: Western blot of patient T-ALL samples from treated NSG mice; assay type: in vivo
Experimental: CCRF-CEM (2×10^6) cells were injected intravenously (i.v.) into female NOD.Cg-Prkdc^scid Il2rg^tm1WJl/SzJ IL2RG (NSG) mice (Jackson Laboratories, Bar Harbor, Me.). […] In some experiments mice were injected i.v. with TLR1-TLR2 ligand (2.5 μg) two days after injecting cells. In other experiments mice were injected intraperitoneally (i.p.) with IRAK-1,-4 inhibitor (10 mg/kg) 3, 6, and 9 days (CCRF-CEM cells) or 7, 10, and 13 days (patient T-ALL cells) after detecting CD7^+ T-ALL cells in circulation. The numbers of T-ALL cells in the bone marrow, spleen, liver, and in circulation were determined by staining cells with anti-human CD7 and/or CD5. To compare T-ALL numbers between groups, 10 μl of calibration microbeads (BD Pharmingen) were added to 50 μl of blood (or marrow or spleen suspensions) and the flow cytometry instrument gates were set to count a constant number of beads.
The levels of p-mTOR and p-p65 were also examined in patient T-ALL samples obtained from mice treated with IRAK-1,-4 inhibitor or DMSO.

[2] = system: CCRF-CEM cells; assay: Cellular senescence assay (SA-β-gal); assay type: cell-based, human; settings: 5 μM, within 48 hours, maintained to 96 hour, FIG. 15A
Experimental: Analysis of senescence-associated β-galactosidase (SA-β-gal) activity was performed using the 96-Well Cellular Senescence Assay Kit (Cell Biolabs, San Diego, Calif.) as per the manufacturer's protocol. In brief, cells were washed with PBS, lysed with cell lysis buffer, and incubated at 37° C. with SA-β-gal substrate for 1 hour. A quantitative Cellular Senescence Assay Kit (SA-β-gal, Fluorometric) (Cell Biolabs, San Diego, Calif.) was used for more quantitative measurement of SA-β-gal activity by flow cytometry. Briefly, control and treated CCRF-CEM cells were incubated with 1× cell pretreatment solution in culture medium for 2 hrs, and the fluorogenic substrate was then directly added into the culture. After 4 hrs, the cells were washed and analyzed by flow cytometry.

[3] = system: CCRF-CEM cells; assay: Senescence gene qPCR array / RT-PCR; assay type: cell-based, human; settings: array of 84 senescence genes, COL1A1 not validated by RT-PCR
Text: To further study the role of IRAK-1,-4 signaling in cellular senescence, we compared the expression of 84 key genes involved in the initiation and progression of senescence. […] Expression levels of CDKN1C, EGR1 and ID1 were also altered in all four T-ALL patient samples collected from IRAK-1,-4 inhibitor-treated NSG mice (FIG. 15E).

[4] = target: IRAK-4 (Homo sapiens, UniProt Q9NWZ3); settings: supplier (EMD Millipore) description; cited from earlier work
Chain of IRAK-4 (Q9NWZ3 whole entry): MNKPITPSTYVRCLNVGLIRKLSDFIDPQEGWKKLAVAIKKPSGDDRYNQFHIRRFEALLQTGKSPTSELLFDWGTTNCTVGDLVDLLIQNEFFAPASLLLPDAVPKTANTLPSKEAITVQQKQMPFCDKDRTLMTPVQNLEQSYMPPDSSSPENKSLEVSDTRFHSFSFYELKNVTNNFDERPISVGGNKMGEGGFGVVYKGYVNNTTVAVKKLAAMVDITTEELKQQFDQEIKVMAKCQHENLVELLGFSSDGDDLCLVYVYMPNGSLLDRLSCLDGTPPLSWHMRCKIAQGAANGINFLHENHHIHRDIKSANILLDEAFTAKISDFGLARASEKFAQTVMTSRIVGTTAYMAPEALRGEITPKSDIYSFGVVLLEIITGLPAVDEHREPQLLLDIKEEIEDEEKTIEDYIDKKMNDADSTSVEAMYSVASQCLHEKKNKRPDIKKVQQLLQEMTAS

[5] = system: Primary T-cells Non-Act; assay: Proliferation (3H-thymidine) of non-activated primary T-cells; assay type: cell-based, human; settings: 3H-thymidine uptake, 72 h
Text: CCRF-CEM, CEM/C1, CEM/C2, CEM-C7, Jurkat, Loucy, Molt-4, HSB-2, SUP-T1, Hut 78, HH, Hut 102, MO, and H9 T-leukemia and T-lymphoma cell lines were purchased from the American Type Culture Collection (Manassas, Va., USA). All of the cell lines were initially expanded and cryopreserved within one month of receipt. Cells were typically used for 6 months at which time a fresh vial of cryopreserved cells was used. Total T cells from healthy donors were isolated via negative selection followed by positive selection using a CD3+ selection kit (Invitrogen, Carlsbad, Calif.). T cells were isolated from patients with T-ALL bone marrow or peripheral blood samples containing more than 70% leukemia cells using a CD2+ isolation kit (STEMCELL Technologies, Vancouver, Canada). All tissues were collected under institutional IRB-approved protocols and all participants gave written informed assent/consent. For in vitro experiments, T-ALL cells were cultured in AIM-V medium supplemented with 20% human AB serum in the presence of recombinant human stem cell factor (50 ng/mL; Amgen, Thousand Oaks, Calif.), insulin (20 nM; Sigma-Aldrich, St Louis, Mo., USA) and IL-7 (50 ng/mL; R&D Systems, Minneapolis, Minn., USA). […]
Cells were cultured in a 96-well plate (Corning Costar, Corning, N.Y., USA) with various concentrations of TLR ligands 1-9, starting at 10 μg/ml, in a final volume of 200 ul. […] After this time point, cells were harvested with a Packard Filter-Mate-96 cell harvester (Perkin Elmer, Waltham, Mass., USA) and counted on Packard Top Count-NXT (Perkin Elmer, Waltham, Mass., USA). Results were expressed as average counts per minute (cpm). […] Forty-eight hours later, proliferation (±SD) was determined by ^3H-thymidine incorporation. Alternatively, apoptosis was measured by flow cytometry after staining cells with Annexin-V (BD Pharmingen, San Diego, Calif., USA) and propidium iodide (Sigma). Cell number was counted under microscopy by staining cells with trypan blue. […]

[6] = system: Primary T-cells Activated; assay: Proliferation (3H-thymidine) of activated primary T-cells; assay type: cell-based, human
Text: CCRF-CEM, CEM/C1, CEM/C2, CEM-C7, Jurkat, Loucy, Molt-4, HSB-2, SUP-T1, Hut 78, HH, Hut 102, MO, and H9 T-leukemia and T-lymphoma cell lines were purchased from the American Type Culture Collection (Manassas, Va., USA). All of the cell lines were initially expanded and cryopreserved within one month of receipt. Cells were typically used for 6 months at which time a fresh vial of cryopreserved cells was used. Total T cells from healthy donors were isolated via negative selection followed by positive selection using a CD3+ selection kit (Invitrogen, Carlsbad, Calif.). T cells were isolated from patients with T-ALL bone marrow or peripheral blood samples containing more than 70% leukemia cells using a CD2+ isolation kit (STEMCELL Technologies, Vancouver, Canada). All tissues were collected under institutional IRB-approved protocols and all participants gave written informed assent/consent. For in vitro experiments, T-ALL cells were cultured in AIM-V medium supplemented with 20% human AB serum in the presence of recombinant human stem cell factor (50 ng/mL; Amgen, Thousand Oaks, Calif.), insulin (20 nM; Sigma-Aldrich, St Louis, Mo., USA) and IL-7 (50 ng/mL; R&D Systems, Minneapolis, Minn., USA). In other experiments, protein lysate was collected using the Full Moon Biosystems (Sunnyvale, Calif., USA) buffer prior to protein examination by western blot or protein array.
Cells were cultured in a 96-well plate (Corning Costar, Corning, N.Y., USA) with various concentrations of TLR ligands 1-9, starting at 10 μg/ml, in a final volume of 200 ul. TLR ligands were diluted 2-fold. Cell lines (25-40×10^3/well) were cultured for 54 hours, whereas fresh patient-derived T-ALL cells (200×10^3/well) were cultured for 30 hours prior to adding [^3H]-thymidine for 18 hours. After this time point, cells were harvested with a Packard Filter-Mate-96 cell harvester (Perkin Elmer, Waltham, Mass., USA) and counted on Packard Top Count-NXT (Perkin Elmer, Waltham, Mass., USA). Results were expressed as average counts per minute (cpm). In some experiments CCRF-CEM cells were pre-treated with TLR1-TLR2 ligand (Pam3CysK4; 2.5 ug/ml) for 48 hrs, washed, and then cultured in the presence of varying concentrations of FBS. Forty-eight hours later, proliferation (±SD) was determined by ^3H-thymidine incorporation. Alternatively, apoptosis was measured by flow cytometry after staining cells with Annexin-V (BD Pharmingen, San Diego, Calif., USA) and propidium iodide (Sigma). Cell number was counted under microscopy by staining cells with trypan blue.
The following TLR ligands were purchased from Invivogen (San Diego, Calif., USA): tripalmitoyl-S-(bis(palmitoyloxy)propyl)-Cys-Ser-(Lys)3-Lys (TLR1-2); Poly I:C (TLR3); ultrapure S. Minnesota Lipopolysaccharide (TLR4); S. typhimurium flagellin (TLR5); FSL-1 (TLR2/6); Imiquimod (TLR7); ssRNA40/Lyovec (TLR8); CpG-ODN 2006 (TLR9).

Compound | p-mTOR levels ([1]; patient sample #810 (barely detectable p-IRAK-4), treated in vivo) | reduction of p-p65 levels ([1]; patient samples #825 and #828 from treated NSG mice) | increase of SA-β-gal activity [2] | expression of CDKN1C, COL1A1, EGR1, ID1, PLAU and SERPINES [3] | inhibition of IRAK-4 [4] | Proliferative effects of TLR ligands [5] | Proliferative effects of TLR ligands ([6]; Primary T-cells, Activated, 3H-thymidine uptake, 72 h) | TLR ligand concentration in parentheses below the symbol ([6]; Primary T-cells, Activated, no unit in table (μg/ml)) | effect on proliferation / T-cell expansion (in words) ([6]; T cells from healthy donors, together with T cell receptor stimulation, FIG. 1A)
O=C(Nc1nc2ccccc2n1CCN1CCOCC1)c1cccc([N+](=O)[O-])c1 [IRAK-1,-4 inhibitor] | did not show changes | two-fold | three-fold | significantly up- or down-regulated | selectively inhibits | – | – | – | –
tripalmitoyl-S-(bis(palmitoyloxy)propyl)-Cys-Ser-(Lys)3-Lys [Pam3Cysk4] | – | – | – | – | – | ∘ | + (enhanced proliferation by 25% or greater) | (10) | enhanced proliferation
